According to article PMC12892976, “Alkylation-based optimization of antifungal FPPS inhibitors yields a potent, broad-spectrum lipophilic zoledronate derivative” (mBio, 2025):
In brackets after ≈: the same amount, converted by molar mass.

Columns and labels:
Format in all cases: cell-based
Saccharomyces cerevisiae [1] = test: MIC/MFC broth microdilution (CLSI); settings: Saccharomyces cerevisiae S288c
Protocol: (§1) Antifungal susceptibility was determined by broth microdilution according to the CLSI guidelines described in M27-Ed4 ([16]). […] MFC was determined by back-plating drug-treated cultures from MIC broths onto SDA plates. The MFC was defined as the lowest concentration from which no colonies could be cultured.

Candida albicans [2] = test: MIC/MFC broth microdilution (CLSI); settings: Candida albicans SC5314
Protocol: as §1

[3] = tested on: Cryptococcus deuterogattii; test: checkerboard drug interaction (FICI, MICc);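 on all read-outs here: simplified diagonal checkerboard screen pairing antifungal drugs with FPPS inhibitors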; settings: C. deuterogattii; for INH FD (MIC-MICc fold decrease): fold decrease of inhibitor MIC
Protocol: (§2) Drug interactions between antifungals and FPPS inhibitors were investigated using a simplified checkerboard diagonal screening method ([45]). […] FICIs were determined according to the Loewe additivity model ([17]).

Cryptococcus neoformans = test: checkerboard drug interaction (FICI, MICc);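 on all read-outs here: antifungal plus FPPS inhibitor pairs tested against Cryptococcus neoformans by simplified diagonal checkerboard screening, FICI computed under the Loewe additivity model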; settings: C. neoformans; for INH FD (MIC-MICc fold decrease): fold decrease of inhibitor MIC
Protocol: as §2

Saccharomyces cerevisiae [4] = test: checkerboard drug interaction (FICI, MICc); parameters: INH MICc / INH MICc (ITR:INH) / INH MICc (KET:INH) / INH MICc (FLC:INH): unit not given beside the values;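 further: simplified diagonal checkerboard screen pairing antifungals with FPPS inhibitors, FICI calculated under the Loewe additivity model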
Candida glabrata = test: checkerboard drug interaction (FICI, MICc);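 on all read-outs here: simplified diagonal checkerboard screen pairing antifungals with FPPS inhibitors, FICI calculated under the Loewe additivity model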; settings: C. glabrata; for INH FD (MIC-MICc fold decrease): fold decrease of inhibitor MIC
Protocol: as §2

Candida albicans [5] = test: checkerboard drug interaction (FICI, MICc);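 further: antifungal plus FPPS inhibitor combinations on Candida albicans tested by a simplified diagonal checkerboard screen, with FICI calculated under the Loewe additivity model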; settings: C. albicans
Protocol: as §2

[6] = FLC:INH combination, MIC of the inhibitor in combination with FLC
[7] = FLC:INH combination, fold decrease of FLC MIC
[8] = ITR:INH combination, MIC of the inhibitor in combination with ITR
[9] = ITR:INH combination, fold decrease of ITR MIC
[10] = KET:INH combination, MIC of the inhibitor in combination with KET
[11] = KET:INH combination, fold decrease of KET MIC

Q: How did the MFC (Saccharomyces cerevisiae [1]) turn out when `CCCCCCCCCCCCN1CCC[C@H]1C(=O)N[C@@H](CC(=O)OC)C(=O)OC` [dmPLA12] was run?
A: Its MFC is 4 µg/mL (≈ 9.38 µM).

Q: What about the MIC (Saccharomyces cerevisiae [1]) of the same molecule?
A: The MIC was 4 µg/mL (≈ 9.38 µM).

Q: And the MFC (Candida albicans [2])?
A: The MFC was over 128 µg/mL.

Q: And the MIC (Candida albicans [2])?
A: The MIC was over 128 µg/mL.

Q: What about the FICI ([3]; FLC:INH combination) of the same molecule?
A: Its FICI is 0.38.

Q: And the “INH MICc” value [3, 6]?
A: The value was 16.

Q: What about the “FLC FD (MIC-MICc fold decrease)” value [3, 7] of the same molecule?
A: The value was 4.

Q: What about the “INH FD (MIC-MICc fold decrease)” value ([3]; FLC:INH combination) of the same molecule?
A: The value was 8.

Q: And the FICI ([3]; ITR:INH combination)?
A: Its FICI is 0.63.

Q: What about the “INH MICc” value [3, 8] of the same molecule?
A: The value was 16.

Q: And the “ITR FD (MIC-MICc fold decrease)” value [3, 9]?
A: Its value is 2.

Q: What about the “INH FD (MIC-MICc fold decrease)” value ([3]; ITR:INH combination) of the same molecule?
A: Its value is 8.

Q: What about the FICI ([3]; KET:INH combination) of the same molecule?
A: The FICI was 0.19.

Q: And the “INH MICc” value [3, 10]?
A: Its value is 16.

Q: What about the “KET FD (MIC-MICc fold decrease)” value [3, 11] of the same molecule?
A: The value was 16.

Q: And the “INH FD (MIC-MICc fold decrease)” value ([3]; KET:INH combination)?
A: Its value is 8.

Q: And the FICI (Cryptococcus neoformans; FLC:INH combination)?
A: The FICI was 3.

Q: What about the “INH MICc” value (Cryptococcus neoformans; [6]) of the same molecule?
A: Its value is 32.

Q: And the “FLC FD (MIC-MICc fold decrease)” value (Cryptococcus neoformans; [7])?
A: Its value is 1.

Q: And the “INH FD (MIC-MICc fold decrease)” value (Cryptococcus neoformans; FLC:INH combination)?
A: The value was -2.

Q: And the FICI (Cryptococcus neoformans; ITR:INH combination)?
A: Its FICI is 1.5.

Q: What about the “INH MICc” value (Cryptococcus neoformans; [8]) of the same molecule?
A: Its value is 16.

Q: What about the “ITR FD (MIC-MICc fold decrease)” value (Cryptococcus neoformans; [9]) of the same molecule?
A: The value was 2.

Q: And the “INH FD (MIC-MICc fold decrease)” value (Cryptococcus neoformans; ITR:INH combination)?
A: The value was 1.

Q: And the FICI (Cryptococcus neoformans; KET:INH combination)?
A: Its FICI is 0.75.

Q: What about the “INH MICc” value (Cryptococcus neoformans; [10]) of the same molecule?
A: The value was 8.

Q: What about the “KET FD (MIC-MICc fold decrease)” value (Cryptococcus neoformans; [11]) of the same molecule?
A: The value was 4.

Q: What about the “INH FD (MIC-MICc fold decrease)” value (Cryptococcus neoformans; KET:INH combination) of the same molecule?
A: Its value is 2.

Q: And the “FICI (FLC:INH)” value (Saccharomyces cerevisiae [4]; Fractional Inhibitory Concentration Index, fluconazole + inhibitor)?
A: The value was 0.75.

Q: What about the “FICI (ITR:INH)” value (Saccharomyces cerevisiae [4]; Fractional Inhibitory Concentration Index, itraconazole + inhibitor) of the same molecule?
A: Its value is 0.75.

Q: What about the “FICI (KET:INH)” value (Saccharomyces cerevisiae [4]; Fractional Inhibitory Concentration Index, ketoconazole + inhibitor) of the same molecule?
A: Its value is 0.38.

Q: And the “INH MICc (FLC:INH)” value (Saccharomyces cerevisiae [4]; MIC of the inhibitor in combination with fluconazole)?
A: Its value is 2.

Q: And the “INH MICc (ITR:INH)” value (Saccharomyces cerevisiae [4]; MIC of the inhibitor in combination with itraconazole)?
A: Its value is 1.

Q: And the “INH MICc (KET:INH)” value (Saccharomyces cerevisiae [4]; MIC of the inhibitor in combination with ketoconazole)?
A: The value was 1.

Q: And the “FLC FD (FLC:INH)” value (Saccharomyces cerevisiae [4]; MIC-MICc fold decrease of fluconazole, negative = increase)?
A: The value was 4.

Q: And the “ITR FD (ITR:INH)” value (Saccharomyces cerevisiae [4]; MIC-MICc fold decrease of itraconazole, negative = increase)?
A: The value was 2.

Q: What about the “KET FD (KET:INH)” value (Saccharomyces cerevisiae [4]; MIC-MICc fold decrease of ketoconazole, negative = increase) of the same molecule?
A: The value was 8.

Q: What about the “INH FD (FLC:INH)” value (Saccharomyces cerevisiae [4]; MIC-MICc fold decrease of the inhibitor, with fluconazole) of the same molecule?
A: The value was 2.

Q: And the “INH FD (ITR:INH)” value (Saccharomyces cerevisiae [4]; MIC-MICc fold decrease of the inhibitor, with itraconazole)?
A: Its value is 4.

Q: And the “INH FD (KET:INH)” value (Saccharomyces cerevisiae [4]; MIC-MICc fold decrease of the inhibitor, with ketoconazole)?
A: Its value is 4.

Q: And the FICI (Candida glabrata; FLC:INH combination)?
A: Its FICI is 1.

Q: What about the “INH MICc” value (Candida glabrata; [6]) of the same molecule?
A: Its value is 8.

Q: What about the “FLC FD (MIC-MICc fold decrease)” value (Candida glabrata; [7]) of the same molecule?
A: The value was 2.

Q: And the “INH FD (MIC-MICc fold decrease)” value (Candida glabrata; FLC:INH combination)?
A: Its value is 2.

Q: What about the FICI (Candida glabrata; ITR:INH combination) of the same molecule?
A: Its FICI is 0.38.

Q: And the “INH MICc” value (Candida glabrata; [8])?
A: The value was 2.

Q: What about the “ITR FD (MIC-MICc fold decrease)” value (Candida glabrata; [9]) of the same molecule?
A: Its value is 4.

Q: What about the “INH FD (MIC-MICc fold decrease)” value (Candida glabrata; ITR:INH combination) of the same molecule?
A: Its value is 8.

Q: And the FICI (Candida glabrata; KET:INH combination)?
A: Its FICI is 0.75.

Q: What about the “INH MICc” value (Candida glabrata; [10]) of the same molecule?
A: The value was 4.

Q: What about the “KET FD (MIC-MICc fold decrease)” value (Candida glabrata; [11]) of the same molecule?
A: The value was 2.

Q: And the “INH FD (MIC-MICc fold decrease)” value (Candida glabrata; KET:INH combination)?
A: The value was 4.

Q: What about the FICI (Candida albicans [5]; FLC:INH combination) of the same molecule?
A: The FICI was 1.06.

Q: And the “INH MICc” value (Candida albicans [5]; [6])?
A: The value was 8.

Q: And the “FLC FD (MIC-MICc fold decrease)” value (Candida albicans [5]; [7])?
A: The value was 1.

Q: What about the “INH FD (MIC-MICc fold decrease)” value (Candida albicans [5]; FLC:INH combination, fold decrease of inhibitor MIC) of the same molecule?
A: The value was 16.

Q: What about the FICI (Candida albicans [5]; ITR:INH combination) of the same molecule?
A: The FICI was at least 4.

Q: What about the “INH MICc” value (Candida albicans [5]; [8]) of the same molecule?
A: Its value is 32.

Q: And the “ITR FD (MIC-MICc fold decrease)” value (Candida albicans [5]; [9])?
A: Its value is -4.
